Source: US20190367516A1 (Bayer Pharma Aktiengesellschaft, priority 2015, published 2019)

Target: T1, human M2 receptor (Homo sapiens, UniProt P08172)
T1 sequence (P08172 1-466): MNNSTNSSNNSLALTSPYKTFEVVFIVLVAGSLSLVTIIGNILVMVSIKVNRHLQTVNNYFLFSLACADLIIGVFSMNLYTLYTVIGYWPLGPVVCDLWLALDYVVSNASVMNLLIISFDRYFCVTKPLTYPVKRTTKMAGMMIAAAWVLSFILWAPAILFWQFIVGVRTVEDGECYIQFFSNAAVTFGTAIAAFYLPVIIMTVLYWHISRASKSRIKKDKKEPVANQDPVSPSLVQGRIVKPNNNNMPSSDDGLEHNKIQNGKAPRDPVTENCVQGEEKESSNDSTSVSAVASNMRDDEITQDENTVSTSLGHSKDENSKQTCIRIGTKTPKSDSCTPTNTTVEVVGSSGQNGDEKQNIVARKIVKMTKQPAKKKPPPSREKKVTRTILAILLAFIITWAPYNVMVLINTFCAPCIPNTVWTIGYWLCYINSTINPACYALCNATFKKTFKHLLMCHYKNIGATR
Conditions: M2-GIRK1/4 reporter cells; for EC50: Receptor activity EC50, allosteric potency at EC20 acetylcholine, in some cases mean of two or more determinations; for Emax: read-out: Efficiency, boosting of the acetylcholine effect at EC20 acetylcholine concentration

Row | EC50 | Emax | Structure (SMILES)
1 | 14 nM | 100% | CC(C)C[C@@H](NC(=O)c1cn(-c2c(F)cc(F)cc2F)c2nc(N3CCNC3=O)ccc2c1=O)C(F)(F)F [Example 580, 4-Oxo-7-(2-oxoimidazolidin-1-yl)-N-[(2R)-1,1,1-trifluoro-4-methylpentan-2-yl)-1-(2,4,6-trifluorophenyl)-1,4-dihydro-1,8-naphthyridine-3-carboxamide]
2 | 14 nM | 98% | CC(NC(=O)c1cn(-c2c(F)cc(F)cc2F)c2nc(N3CCNC3=O)ccc2c1=O)(C(F)(F)F)C(F)(F)F [Example 581, N-(1,1,1,3,3,3-Hexafluoro-2-methylpropan-2-yl)-4-oxo-7-(2-oxoimidazolidin-1-yl)-1-(2,4,6-trifluorophenyl)-1,4-dihydro-1,8-naphthyridine-3-carboxamide]
3 | 14 nM | 95.5% | O=C(Nc1c(Cl)cccc1Cl)c1cn(-c2c(F)cc(F)cc2F)c2nc(N3C[C@@H](O)[C@H](O)C3)ccc2c1=O [Example 585, N-(2,6-Dichlorophenyl)-7-[(3R,4R)-3,4-dihydroxypyrrolidin-1-yl]-4-oxo-1-(2,4,6-trifluorophenyl)-1,4-dihydro-1,8-naphthyridine-3-carboxamide]
4 | 16 nM | 100% | CC(NC(=O)c1cn(-c2c(F)cc(F)cc2F)c2nc(N3C[C@@H](O)[C@H](O)C3)ccc2c1=O)(C(F)(F)F)C(F)(F)F [Example 591, 7-[(3R,4R)-3,4-Dihydroxypyrrolidin-1-yl]-N-(1,1,3,3,3-hexafluoro-2-methylpropan-2-yl)-4-oxo-1-(2,4,6-trifluorophenyl)-1,4-dihydro-1,8-naphthyridine-3-carboxamide]
5 | 16 nM | 99.5% | O=C(Nc1c(Cl)cccc1Cl)c1cn(-c2c(F)cc(F)cc2F)c2nc(N3C[C@@H](O)CC3=O)ccc2c1=O [Example 592, N-(2,6-Dichlorophenyl)-7-[(4S)-4-hydroxy-2-oxopyrrolidin-1-yl]-4-oxo-1-(2,4,6-trifluorophenyl)-1,4-dihydro-1,8-naphthyridine-3-carboxamide]
6 | 18 nM | 100% | COC(=O)N1CCN(c2ccc3c(=O)c(C(=O)N[C@H](C4CC4)C(F)(F)F)cn(-c4c(F)cc(F)cc4F)c3n2)CC1 [Example 594, Methyl 4-[6-{[(1R)-1-cyclopropyl-2,2,2-trifluoroethyl]carbamoyl}-5-oxo-8-(2,4,6-trifluorophenyl)-5,8-dihydro-1,8-naphthyridin-2-yl]piperazine-1-carboxylate]
7 | 21 nM | 100% | COC1(C)CN(c2ccc3c(=O)c(C(=O)N[C@@H](C(C)(C)C)C(F)(F)F)cn(-c4c(F)cc(F)cc4F)c3n2)C1 [Example 598, 7-(3-Methoxy-3-methylazetidin-1-yl)-4-oxo-N-[(2S)-1,1,1-trifluoro-3,3-dimethylbutan-2-yl]-1-(2,4,6-trifluorophenyl)-1,4-dihydro-1,8-naphthyridine-3-carboxamide]
8 | 23 nM | 90% | O=C(NC(C(F)(F)F)C(F)(F)F)c1cn(-c2c(F)cc(F)cc2F)c2nc(N3CCNC3=O)ccc2c1=O [Example 599, N-(1,1,1,3,3,3-Hexafluoropropan-2-yl)-4-oxo-7-(2-oxoimidazolidin-1-yl)-1-(2,4,6-trifluorophenyl)-1,4-dihydro-1,8-naphthyridine-3-carboxamide]
9 | 25 nM | 89.5% | COC(=O)N1CCN(c2ccc3c(=O)c(C(=O)N[C@@H](C4CC4)C(F)(F)F)cn(-c4c(F)cc(F)cc4F)c3n2)CC1 [Example 603, Methyl 4-[6-{[(1 S)-1-cyclopropyl-2,2,2-trifluoroethyl]carbamoyl}-5-oxo-8-(2,4,6-trifluorophenyl)-5,8-dihydro-1,8-naphthyridin-2-yl]piperazine-1-carboxylate]
